Strand notation (5' to 3'): a small letter for the sugar, then the base; units joined by * are phosphorothioate-linked, units joined directly phosphodiester-linked; [ ] holds rarer units or linkages, { } end groups; capitals alone tell only the bases. k = constrained ethyl (cEt); [5mC] = 5-methylcytosine; d = 2'-deoxy (DNA)

The first data set concerns Yap1 mRNA. Kind of data set: Antisense inhibition of human Yap1 in A-431 cells by cEt gapmers, single dose (Example 3, RTS36584). Type of data set: cell-based. The conditions noted are these: Table 26; Yap1 mRNA by 3-10-3 cEt gapmers targeting SEQ ID NO.: 1, and 2; percent of untreated control. In short, it runs like this: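 Values are % untreated control: Yap1 mRNA by quantitative RT-PCR (RTS36584), normalized to total RNA by RiboGreen. Before RNA isolation, 5,000 A-431 cells per well were exposed ~48 h to 2,000 nM 16-mer cEt gapmer, delivered without transfection reagent.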
For the substance “1076236 (kG*kG*kA*dG*dA*dA*d[5mC]*d[5mC]*dT*dT*dA*dT*dT*kT*kA*kT; antisense) [compound 1076236]”, the “YAP1 (% UTC)” value is reported as 51 % UTC.
In the case of “1076268 (kG*kT*kA*d[5mC]*dA*dA*dT*dA*dA*dT*dG*d[5mC]*dT*kT*k[5mC]*k[5mC]; antisense) [compound 1076268]”, the “YAP1 (% UTC)” value came out at 10 % UTC.
Turning to “1076300 (kA*kA*kA*dA*dA*dA*dT*dG*dG*d[5mC]*dT*dT*d[5mC]*kA*k[5mC]*kG; antisense) [compound 1076300]”, the “YAP1 (% UTC)” value was found to be 22 % UTC.
On to “1076332 (antisense kT*kA*kT*dA*dA*dG*dG*dA*dA*dT*dG*dG*d[5mC]*kA*kA*k[5mC]) [compound 1076332]”, for which the “YAP1 (% UTC)” value is given as 107 % UTC.
Regarding “1076364 (antisense k[5mC]*k[5mC]*kA*dT*dA*dA*dA*dA*dG*dT*d[5mC]*d[5mC]*dA*k[5mC]*kT*kA) [compound 1076364]”, the “YAP1 (% UTC)” value is 30 % UTC.
Consider “1076428 (kA*kT*kT*dA*dA*dA*dA*dA*dG*dA*dA*dG*d[5mC]*kA*k[5mC]*kG; antisense) [compound 1076428]”, for which the “YAP1 (% UTC)” value is given as 53 % UTC.
Same read-out and setting: under “1076492 (kA*kA*kA*dA*dG*dA*dT*dA*d[5mC]*d[5mC]*d[5mC]*d[5mC]*d[5mC]*kA*kG*kT; antisense) [compound 1076492]” stands 47 % UTC.

The data set is the same for the next values; noted with them: Table 27; Yap1 mRNA by 3-10-3 cEt gapmers targeting SEQ ID NO.: 1, and 2; percent of untreated control.
With “1076237 (kA*k[5mC]*kT*dA*dA*dA*dG*dG*dA*d[5mC]*dA*dA*dA*kG*kG*kT; antisense) [compound 1076237]”, the “YAP1 (% UTC)” value is listed as 109 % UTC.
Regarding “1076269 (kG*kA*k[5mC]*dG*dA*dA*dA*dA*dA*dT*dA*dT*dT*k[5mC]*kT*kT; antisense) [compound 1076269]”, the “YAP1 (% UTC)” value came to 28 % UTC.
Turning to “1076301 (kG*kT*kA*dT*dA*dA*dG*dA*d[5mC]*d[5mC]*dT*dT*dG*kG*kG*kA; antisense) [compound 1076301]”, the “YAP1 (% UTC)” value was 34 % UTC.
In the case of “1076333 (antisense k[5mC]*kT*kA*dT*dA*dA*dG*dG*dA*dA*dT*dG*dG*k[5mC]*kA*kA) [compound 1076333]”, the “YAP1 (% UTC)” value was determined as 97 % UTC.
“1076365 (antisense kT*kA*kA*dG*dA*dA*dG*dG*dG*d[5mC]*d[5mC]*dA*dA*kT*kG*kG) [compound 1076365]”: the “YAP1 (% UTC)” value is 15 % UTC.
Turning to “1076429 (k[5mC]*kA*kT*dT*dA*d[5mC]*dA*dA*dG*d[5mC]*dA*dT*dA*kG*kG*k[5mC]; antisense) [compound 1076429]”, the “YAP1 (% UTC)” value is on record as 26 % UTC.
For “1076493 (kT*kG*kA*d[5mC]*dA*dA*dT*dA*dA*dG*dG*dG*dA*k[5mC]*kA*kA; antisense) [compound 1076493]”, the “YAP1 (% UTC)” value is reported as 34 % UTC.
“1076557 (kA*kA*k[5mC]*dA*dA*dA*dT*dA*d[5mC]*d[5mC]*dA*dG*dG*kT*kT*k[5mC]; antisense) [compound 1076557]”: the “YAP1 (% UTC)” value was 111 % UTC.

Staying with this data set, now noted: Table 28; Yap1 mRNA as percent of untreated control; 3-10-3 cEt gapmers targeting SEQ ID NO.: 1, and 2.
As for “1076238 (kG*kA*kT*dG*dA*dA*dT*dA*dG*d[5mC]*dT*dA*dA*kG*kA*kA; antisense) [compound 1076238]”, the “YAP1 (% UTC)” value is on record as 30 % UTC.
Same read-out and setting: next, “1076270 (kT*kA*kA*d[5mC]*dA*dA*dT*dA*dG*dT*dA*dG*dA*k[5mC]*kG*kA; antisense) [compound 1076270]”: 28 % UTC; “1076302 (kA*kA*kT*dA*dA*dG*d[5mC]*d[5mC]*dT*d[5mC]*dA*d[5mC]*d[5mC]*kT*kT*kT; antisense) [compound 1076302]”: 74 % UTC.
The same measure, in the same setting: next, “1076334 (antisense kA*k[5mC]*k[5mC]*dT*dA*dT*dA*dA*dG*dG*dA*dA*dT*kG*kG*k[5mC]) [compound 1076334]”: 108 % UTC.
Still for that read-out and setting: under “1076398 (antisense k[5mC]*kT*kT*dG*dA*dA*dG*dG*dG*d[5mC]*dT*dA*dT*kG*kG*kA) [compound 1076398]” stands 62 % UTC; under “1076558 (kG*k[5mC]*k[5mC]*dA*dA*dA*dT*dA*dT*dT*dT*dA*dA*k[5mC]*kT*k[5mC]; antisense) [compound 1076558]”, 30 % UTC.

Staying with this data set, now noted: Table 29; Yap1 mRNA as percent of untreated control; 3-10-3 cEt gapmers targeting SEQ ID NO.: 1, and 2.
On to “1076239 (kG*kT*kT*dT*dA*dA*dA*dA*dA*dA*dA*dA*d[5mC]*kG*kG*kG; antisense) [compound 1076239]”, for which the “YAP1 (% UTC)” value amounted to 75 % UTC.
On the same count and under the same terms, under “1076271 (k[5mC]*kG*kG*d[5mC]*dA*dA*d[5mC]*dA*dA*d[5mC]*dA*dA*dA*kA*kT*kG; antisense) [compound 1076271]” stands 18 % UTC; under “1076303 (k[5mC]*kT*kA*dA*dT*dA*dA*dG*d[5mC]*d[5mC]*dT*d[5mC]*dA*k[5mC]*k[5mC]*kT; antisense) [compound 1076303]”, 34 % UTC.
Same read-out and setting: under “1076335 (antisense k[5mC]*kA*k[5mC]*d[5mC]*dT*dA*dT*dA*dA*dG*dG*dA*dA*kT*kG*kG) [compound 1076335]” stands 80 % UTC; under “1076431 (k[5mC]*kA*k[5mC]*d[5mC]*dA*dA*dT*dA*dG*dA*dA*d[5mC]*dA*kT*kA*kT; antisense) [compound 1076431]”, 31 % UTC.
Take “1076463 (kG*kA*kT*dT*dA*dG*dT*dA*dA*d[5mC]*dA*d[5mC]*dT*kG*kA*kT; antisense) [compound 1076463]”: the “YAP1 (% UTC)” value is reported as 38 % UTC.
Same read-out and setting: under “1076495 (kG*kA*kT*dT*dA*dG*dT*dG*dA*dA*dA*dA*dT*kT*k[5mC]*k[5mC]; antisense) [compound 1076495]” stands 30 % UTC; under “1076559 (kA*kA*k[5mC]*dA*dA*dA*dT*dA*dT*dA*dG*dT*dT*kA*kG*k[5mC]; antisense) [compound 1076559]”, 74 % UTC.

The same data set, now with this note: Table 34; Yap1 mRNA as percent of untreated control; 3-10-3 cEt gapmers targeting SEQ ID NO: 1 and 2; single dose.
On to “1076244 (k[5mC]*kA*kA*dT*dT*dT*dG*dG*dG*dA*dT*dA*dT*kT*k[5mC]*kG; antisense) [compound 1076244]”, for which the “YAP1 (% UTC)” value came out at 14 % UTC.
Take “1076276 (k[5mC]*kT*kT*dT*dA*dG*dG*dA*dG*dT*d[5mC]*dA*dG*kA*kA*k[5mC]; antisense) [compound 1076276]”: the “YAP1 (% UTC)” value is given as 59 % UTC.
Take “1076308 (kA*kG*kT*dA*dA*dT*dT*dA*d[5mC]*d[5mC]*dT*d[5mC]*dT*kA*kA*kT; antisense) [compound 1076308]”: the “YAP1 (% UTC)” value came to 32 % UTC.
As for “1076372 (antisense k[5mC]*kA*kA*dT*dA*dA*dG*dA*dA*d[5mC]*dG*dA*dA*k[5mC]*k[5mC]*kT) [compound 1076372]”, the “YAP1 (% UTC)” value is 76 % UTC.
As for “1076404 (antisense kT*kA*kT*dT*dT*dA*dA*dG*dA*d[5mC]*d[5mC]*dT*dG*kG*kT*kG) [compound 1076404]”, the “YAP1 (% UTC)” value came out at 13 % UTC.
With “1076436 (k[5mC]*kA*kT*dT*dA*d[5mC]*dT*dA*d[5mC]*dT*d[5mC]*dT*dG*kT*k[5mC]*k[5mC]; antisense) [compound 1076436]”, the “YAP1 (% UTC)” value amounted to 39 % UTC.
Turning to “1076468 (k[5mC]*kA*kT*dT*dA*d[5mC]*dT*dA*d[5mC]*dT*dA*dA*dG*kA*kG*kT; antisense) [compound 1076468]”, the “YAP1 (% UTC)” value is on record as 91 % UTC.
On the same count and under the same terms, under “1076500 (k[5mC]*kA*kA*dT*dT*dA*dA*dG*dA*dT*d[5mC]*dA*dA*k[5mC]*kA*kT; antisense) [compound 1076500]” stands 99 % UTC; under “1076532 (kA*kT*kT*dT*dT*dT*dA*dG*dG*d[5mC]*dA*dG*dA*k[5mC]*kG*k[5mC]; antisense) [compound 1076532]”, 12 % UTC.

Staying with this data set, now noted: Table 35; Yap1 mRNA as percent of untreated control; 3-10-3 cEt gapmers targeting SEQ ID NO: 1 and 2; single dose.
Regarding “1076245 (k[5mC]*k[5mC]*kT*dA*dA*dA*dA*dA*dA*d[5mC]*dT*dA*dG*kT*kG*kA; antisense) [compound 1076245]”, the “YAP1 (% UTC)” value worked out at 101 % UTC.
For “1076277 (kG*k[5mC]*kT*dA*dA*dA*dA*d[5mC]*dA*dT*d[5mC]*dA*dG*kA*kT*kA; antisense) [compound 1076277]”, the “YAP1 (% UTC)” value is 24 % UTC.
Turning to “1076309 (kG*kA*kT*dA*dA*d[5mC]*dT*dT*dT*d[5mC]*d[5mC]*dA*d[5mC]*kA*kA*kT; antisense) [compound 1076309]”, the “YAP1 (% UTC)” value was 9 % UTC.
The same measure, in the same setting: under “1076341 (antisense kA*kT*kT*dA*dA*d[5mC]*dT*dA*d[5mC]*dA*dA*d[5mC]*dT*kG*kT*kG) [compound 1076341]” stands 18 % UTC.
Still for that read-out and setting: under “1076373 (antisense kA*kA*k[5mC]*dG*dG*dA*dT*dA*dT*dA*d[5mC]*dA*dA*kT*kA*kA) [compound 1076373]” stands 10 % UTC; under “1076405 (antisense kT*kT*kA*dT*dT*dT*dA*dA*dG*dA*d[5mC]*d[5mC]*dT*kG*kG*kT) [compound 1076405]”, 12 % UTC.
Turning to “1076437 (kG*kA*kA*dG*dA*dA*dT*dA*dG*d[5mC]*dA*dT*d[5mC]*kT*kG*kA; antisense) [compound 1076437]”, the “YAP1 (% UTC)” value amounted to 19 % UTC.
Same read-out and setting: next, “1076469 (kG*kT*kA*dA*dA*dA*dG*dG*dG*dA*dA*d[5mC]*dT*kA*kA*kG; antisense) [compound 1076469]”: 69 % UTC; “1076501 (k[5mC]*kA*kT*dA*dA*d[5mC]*dA*d[5mC]*dT*dT*dA*dA*dG*kG*kT*kG; antisense) [compound 1076501]”: 97 % UTC.
Same read-out and setting: under “1076533 (kA*kT*kT*dT*dT*dT*dA*dG*dT*d[5mC]*d[5mC]*dA*dG*kT*kG*kG; antisense) [compound 1076533]” stands 9 % UTC.

The record behind these values is US11214803B2, “Modulators of YAP1 expression” (Ionis Pharmaceuticals, Inc., priority 2019, dated 2022).
